According to PMC5932348, “Identification and Characterization of c-di-GMP Metabolic Enzymes of Leptospira interrogans and c-di-GMP Fluctuations After Thermal Shift and Infection” (Frontiers in Microbiology, 2018):

How the values were obtained:
Test in all cases: RP-HPLC product detection, […] nm
Type in all cases: biochemical
[1] = target: T1, LA2528 (Leptospira interrogans, UniProt Q8F383); settings: 100 uM GTP; pH 7.8; 10 mM MgCl2; 28 C, 1 h; product c-di-GMP
T1 construct: gene pleD; full-length REC-GGDEF protein, pET-28a or pET-32a, E. coli BL21(DE3), Ni-NTA
T1 sequence (Q8F383 entry or part of it): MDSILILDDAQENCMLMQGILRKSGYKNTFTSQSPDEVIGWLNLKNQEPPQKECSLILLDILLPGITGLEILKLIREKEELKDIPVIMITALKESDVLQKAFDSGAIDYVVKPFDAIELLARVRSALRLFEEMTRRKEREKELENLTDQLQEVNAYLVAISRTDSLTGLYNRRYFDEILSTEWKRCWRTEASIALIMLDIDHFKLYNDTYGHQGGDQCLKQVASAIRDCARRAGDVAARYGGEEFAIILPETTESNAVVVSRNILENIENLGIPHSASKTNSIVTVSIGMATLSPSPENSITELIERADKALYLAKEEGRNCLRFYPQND

[2] = target: T2, LA1483 (Leptospira interrogans, UniProt Q8F629); settings: 100 uM GTP; pH 7.8; 10 mM MgCl2; 28 C, 1 h; product c-di-GMP
T2 construct: gene LA_1483; full-length GAF-GGDEF protein, pET-28a or pET-32a, E. coli BL21(DE3), Ni-NTA
T2 sequence (Q8F629 entry or part of it): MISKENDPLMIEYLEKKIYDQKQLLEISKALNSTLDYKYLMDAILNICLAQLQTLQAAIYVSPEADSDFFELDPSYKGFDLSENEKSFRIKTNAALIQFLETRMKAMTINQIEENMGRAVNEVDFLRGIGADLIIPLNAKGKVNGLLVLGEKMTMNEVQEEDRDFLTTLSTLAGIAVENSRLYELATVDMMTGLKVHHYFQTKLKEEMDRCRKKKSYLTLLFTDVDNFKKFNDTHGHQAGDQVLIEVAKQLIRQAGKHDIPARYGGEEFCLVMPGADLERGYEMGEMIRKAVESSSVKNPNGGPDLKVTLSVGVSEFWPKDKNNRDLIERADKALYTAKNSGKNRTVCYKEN

[3] = target: T3, LA2383 (Leptospira interrogans, UniProt Q8F3L8); settings: 10 uM substrate; pH 8.5; 5 mM MgCl2; 10 mM MnCl2; 28 C, 1 h
T3 construct: gene LA_2383; HD-GYP protein lacking the conserved HD residues, pET-28a or pET-32a, E. coli BL21(DE3), Ni-NTA
T3 sequence (Q8F3L8 entry or part of it): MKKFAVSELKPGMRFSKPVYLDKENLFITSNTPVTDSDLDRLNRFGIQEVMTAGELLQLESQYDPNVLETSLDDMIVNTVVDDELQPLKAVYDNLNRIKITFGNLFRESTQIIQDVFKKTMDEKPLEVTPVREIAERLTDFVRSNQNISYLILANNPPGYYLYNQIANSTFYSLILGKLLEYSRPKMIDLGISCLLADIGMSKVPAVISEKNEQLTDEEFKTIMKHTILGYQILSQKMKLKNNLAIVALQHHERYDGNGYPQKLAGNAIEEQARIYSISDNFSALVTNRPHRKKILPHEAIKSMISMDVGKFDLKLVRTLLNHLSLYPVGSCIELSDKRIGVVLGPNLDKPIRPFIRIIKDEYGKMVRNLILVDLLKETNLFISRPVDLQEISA

Row | SMILES | RP-HPLC product detection, 254 nm [1] | RP-HPLC product detection, 254 nm [2] | RP-HPLC product detection, 254 nm [3]
1 | Nc1nc2c(ncn2[C@@H]2O[C@H](COP(=O)(O)OP(=O)(O)OP(=O)(O)O)[C@@H](O)[C@H]2O)c(=O)[nH]1 [GTP] | they are able to utilize GTP to produce c-di-GMP | they are able to utilize GTP to produce c-di-GMP | 
2 | Nc1nc2c(ncn2[C@@H]2O[C@@H]3COP(=O)(O)O[C@H]4[C@@H](O)[C@H](n5cnc6c(=O)[nH]c(N)nc65)O[C@@H]4COP(=O)(O)O[C@H]3[C@H]2O)c(=O)[nH]1 [c-di-GMP] |  |  | LA2383 was able to hydrolyze both c-di-GMP and pGpG in vitro and produce GMP
3 | Nc1nc2c(ncn2[C@@H]2O[C@H](COP(=O)(O)O[C@H]3[C@@H](O)[C@H](n4cnc5c(=O)[nH]c(N)nc54)O[C@@H]3COP(=O)(O)O)[C@@H](O)[C@H]2O)c(=O)[nH]1 [pGpG] |  |  | LA2383 was able to hydrolyze both c-di-GMP and pGpG in vitro and produce GMP
